Data published in patent US9925222B2, “Gut barrier dysfunction treatment and prevention” (ALBERT EINSTEIN COLLEGE OF MEDICINE OF YESHIVA UNIVERSITY, priority 2012, dated 2018).

Tests used:
[1] = biological target: T1, hPXR ligand binding domain (LBD) (Homo sapiens, UniProt O75469); experiment: LanthaScreen TR-FRET PXR competitive binding assay, hPXR LBD; conditions: read-out: EC50 for ligand displacement in hPXR
T1 construct: purchased Invitrogen
T1 sequence (O75469 146-433 limits assumed): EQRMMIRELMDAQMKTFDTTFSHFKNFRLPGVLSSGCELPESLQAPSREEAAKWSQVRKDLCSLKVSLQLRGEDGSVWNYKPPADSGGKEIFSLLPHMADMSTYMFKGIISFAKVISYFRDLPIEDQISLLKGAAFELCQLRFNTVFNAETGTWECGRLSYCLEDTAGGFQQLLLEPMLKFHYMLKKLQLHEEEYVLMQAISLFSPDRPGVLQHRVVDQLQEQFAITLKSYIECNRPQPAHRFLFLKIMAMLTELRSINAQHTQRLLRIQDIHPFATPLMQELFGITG
Method: A LanthaScreen TR-FRET PXR Competitive Binding Assay was conducted according to the manufacturer's protocol (Invitrogen) as previously published (14). Briefly, serial dilutions of indole 3-propionic acid (diluted in TR-FRET PXR Assay Buffer, Invitrogen) were dispensed into triplicate wells of a black, non-treated 384 well plate (Corning Life Sciences). Subsequently, 5 μl of Fluormone PXR Green was added into each well. Finally, 5 μl of a master mix containing hPXR ligand binding domain (LBD), terbium labeled anti-glutathione S transferase (final concentration 10 nM) and dithiothreitol (final concentration 0.05 mM) was added into each well. For mPXR ligand binding domain, GST tagged mPXR LBD was purified using Glutathione Sepharose 4 Fast Flow beads (GE Health Care) in Poly-Prep Chromatography columns (Bio-Rad). hPXR LBD of the assay kit was replaced with the similar concentrations of mPXR LBD. The content was mixed briefly (10 s) and incubated in dark at room temperature for 1 h. TR-FRET was measured using SpectraMaxR M5 microplate reader (Molecular Devices) with the excitation wavelength of 340 nm and emission wavelengths of 520 and 495 nm. TR-FRET ratio was calculated by dividing the emission signal at 520 nm by emission signal at 495 nm. Data are expressed as percentage TR-FRET ratio. Error bars represent s.e.m of duplicate wells from two separate experiments.

[2] = test system: Tnf-α mRNA expression; experiment: KDO2-lipid A gut mucosal endotoxemia model with oral IPA, Tnf-α qPCR in jejunum apical enterocytes; assay type: in vivo; conditions: KDO2 200 μg/mice, oral IPA 20 mg/kg
Method: 2.0 μg of total RNA extracted from pooled apical enterocytes with TRIzolR (Invitrogen), were reverse transcribed with random hexamer primers and SuperScript™ III-RT enzyme (Invitrogen). Quantitative PCR (qPCR) reactions using TaqMan universal PCR master mix and TaqMan probes containing FAM as the 5′ reporter fluorochrome and tetramethylrhodamine (MGB) as the 3′ quencher fluorochrome, were performed in triplicate for each sample and analyzed on the ABI Prism 7900HT system. […]
For indomethacin induced mouse jejunitis model, a protocol published by Ettarh and Carr was modified by using a single intraperitoneal dose of indomethacin to reduce the toxicity in Pxr^−/− mice (17). […] Weights of individual jejunum sections were measured for quantitation of enteropooling (intestinal weight/length in mg/cm). […]

O=C(O)CCc1c[nH]c2ccccc12 [IPA, indole-3-propionic acid]
EC50 [1]: 2100 nM
Decrease of epithelial Tnf mRNA expression ([2]; Pxr+/+ mice): 3.73 fold
Decrease of epithelial Tnf mRNA expression ([2]; Pxr−/− mice): 1.72 fold
